Measured values taken from article PMC2831638 (Biochemistry, 2010).
Entries after “also recorded” stand apart in the source; their conditions may differ. Ends that are not written are not given here.

Legend:
[1] = Peptide solubility, filtration assay with AAA; format: physicochemical; details: pH 7.4
[2] = system: Aβ42-induced toxicity in differentiated PC-12 cells; details: cell-viability screen; cited from earlier work

Substance	Max. solubility [1] [µM]	toxicity of the peptide itself (in words) [2]	further results
AEDVGSNKGA [Aβ(21–30)]	129 ± 5	–	–
IGLMVGGVVIA [Aβ(32–42)]	–	slight toxicity	–
KGAIIGLMVGGVVIA [Aβ(28–42)]	–	highly toxic itself; also recorded: higher toxicity than Aβ42 itself	–
LMVGGVV [Aβ(34–40)]	169 ± 13	–	–
VVIA [Aβ(39–42)]	–	–	inhibition of Aβ42-induced toxicity (in words) [2]: strongest inhibitors
